Results: ChEMBL document CHEMBL1201862, “PubChem BioAssay data set” (2004)
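Assay format: 96-well plates, 48-hour exposure. Abbreviation: GI50, concentration required for 50% inhibition of growth.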 Activity calls are given as the source filed them. Cut-off read from the data, not from the text of the source: active = GI50 up to about 1.1 µM and inactive = higher.

How the values were obtained:
Assay in all cases: NCI anticancer screen, dose series, 48 h
BT-549 = system: BT-549
SF-539 = system: SF-539
HOP-62 = system: HOP-62
MOLT-4 = system: MOLT-4
HOP-92 = system: HOP-92
OVCAR-5 = system: OVCAR-5
M14 = system: M14
NCI/ADR-RES = system: NCI/ADR-RES
OVCAR-8 = system: OVCAR-8
RPMI-8226 = system: RPMI-8226
HCT-116 = system: HCT-116
SNB-19 = system: SNB-19
SN12C = system: SN12C
TK-10 = system: TK-10
SK-MEL-5 = system: SK-MEL-5
786-0 = system: 786-0
SK-MEL-2 = system: SK-MEL-2
SF-295 = system: SF-295
PC-3 = system: PC-3
A498 = system: A498
RXF 393 = system: RXF 393
HT-29 = system: HT-29
DU-145 = system: DU-145
MDA-N = system: MDA-N
NCI-H522 = system: NCI-H522
SK-OV-3 = system: SK-OV-3
NCI-H23 = system: NCI-H23
UO-31 = system: UO-31
A549 = system: A549
MDA-MB-231 = system: MDA-MB-231
COLO 205 = system: COLO 205
HCT-15 = system: HCT-15
OVCAR-4 = system: OVCAR-4
CAKI-1 = system: CAKI-1
EKVX = system: EKVX
U-251 = system: U-251
SW-620 = system: SW-620
KM12 = system: KM12
CCRF-CEM = system: CCRF-CEM
K562 = system: K562
HL-60 = system: HL-60
Malme-3M = system: Malme-3M
LOX IMVI = system: LOX IMVI
UACC-257 = system: UACC-257
IGROV-1 = system: IGROV-1
T47D = system: T47D
NCI-H460 = system: NCI-H460
OVCAR-3 = system: OVCAR-3
ACHN = system: ACHN
UACC-62 = system: UACC-62
SK-MEL-28 = system: SK-MEL-28
MDA-MB-435 = system: MDA-MB-435
SR = system: SR
Hs-578T = system: Hs-578T
NCI-H226 = system: NCI-H226
SF-268 = system: SF-268
SNB-75 = system: SNB-75
MCF7 = system: MCF7

In the case of CC1(C)CCCCCCC2CC2CCCCCC(C)(C)C1=O (stereo not given), the GI50 (BT-549) is reported as > 100 µM (inactive), the GI50 (SF-539) is reported as > 100 µM (inactive) and the GI50 (HOP-62) is reported as > 100 µM (inactive). The GI50 (MOLT-4) was 33.5 µM (inactive), the GI50 (HOP-92) was 62.5 µM (inactive) and the GI50 (OVCAR-5) was > 100 µM (inactive). The GI50 (M14) was > 100 µM (inactive), the GI50 (NCI/ADR-RES) was 99.3 µM (inactive) and the GI50 (OVCAR-8) was > 100 µM (inactive). For the same molecule, the GI50 (RPMI-8226) was 24.4 µM (inactive), the GI50 (HCT-116) was 39.1 µM (inactive) and the GI50 (SNB-19) was > 100 µM (inactive). For the same molecule, the GI50 (SN12C) was > 100 µM (inactive), the GI50 (TK-10) was > 100 µM (inactive) and the GI50 (SK-MEL-5) was 49.7 µM (inactive). For the same molecule, the GI50 (786-0) was 64 µM (inactive), the GI50 (SK-MEL-2) was 40.6 µM (inactive) and the GI50 (SF-295) was > 100 µM (inactive). The GI50 (PC-3) was > 100 µM (inactive), the GI50 (A498) was > 100 µM (inactive) and the GI50 (RXF 393) was 24.3 µM (inactive). The GI50 (HT-29) was 42 µM (inactive), the GI50 (DU-145) was > 100 µM (inactive) and the GI50 (MDA-N) was 88.3 µM (inactive). The GI50 (NCI-H522) was 51.9 µM (inactive), the GI50 (SK-OV-3) was > 100 µM (inactive) and the GI50 (NCI-H23) was 69.2 µM (inactive). For the same molecule, the GI50 (UO-31) was > 100 µM (inactive), the GI50 (A549) was 45.7 µM (inactive) and the GI50 (MDA-MB-231) was 60.3 µM (inactive). For the same molecule, the GI50 (COLO 205) was 63.1 µM (inactive), the GI50 (HCT-15) was 78.7 µM and the GI50 (OVCAR-4) was > 100 µM (inactive). For the same molecule, the GI50 (CAKI-1) was > 100 µM (inactive), the GI50 (EKVX) was 41.9 µM (inactive) and the GI50 (U-251) was 36.6 µM (inactive). The GI50 (SW-620) was > 100 µM (inactive), the GI50 (KM12) was 92.5 µM (inactive) and the GI50 (CCRF-CEM) was 19.1 µM (inactive). For the same molecule, the GI50 (K562) was 29.9 µM (inactive), the GI50 (HL-60) was 16.6 µM (inactive) and the GI50 (Malme-3M) was > 100 µM (inactive). For the same molecule, the GI50 (LOX IMVI) was 19.8 µM (inactive), the GI50 (UACC-257) was 37.8 µM (inactive) and the GI50 (IGROV-1) was > 100 µM (inactive). The GI50 (T47D) was 36.9 µM (inactive), the GI50 (NCI-H460) was 66.2 µM (inactive) and the GI50 (OVCAR-3) was 76.4 µM (inactive). For the same molecule, the GI50 (ACHN) was > 100 µM (inactive), the GI50 (UACC-62) was > 100 µM (inactive) and the GI50 (SK-MEL-28) was > 100 µM (inactive). The GI50 (MDA-MB-435) was 49.9 µM (inactive), the GI50 (SR) was 0.787 µM (active) and the GI50 (Hs-578T) was > 100 µM (inactive). The GI50 (NCI-H226) was > 100 µM (inactive), the GI50 (SF-268) was > 100 µM (inactive) and the GI50 (SNB-75) was > 100 µM (inactive).

With NC(=O)Cc1ncn(-c2ccccc2)n1 the GI50 (BT-549) was > 100 µM (inactive), the GI50 (SF-539) was > 100 µM (inactive) and the GI50 (HOP-62) was > 100 µM (inactive). The GI50 (MOLT-4) was > 100 µM (inactive), the GI50 (HOP-92) was > 100 µM (inactive) and the GI50 (OVCAR-5) was > 100 µM (inactive). The GI50 (M14) was > 100 µM (inactive), the GI50 (NCI/ADR-RES) was > 100 µM (inactive) and the GI50 (OVCAR-8) was > 100 µM (inactive). The GI50 (RPMI-8226) was > 100 µM (inactive), the GI50 (HCT-116) was > 100 µM (inactive) and the GI50 (SNB-19) was > 100 µM (inactive). The GI50 (SN12C) was > 100 µM (inactive), the GI50 (TK-10) was > 100 µM (inactive) and the GI50 (SK-MEL-5) was > 100 µM (inactive). For the same molecule, the GI50 (786-0) was > 100 µM (inactive), the GI50 (SK-MEL-2) was > 100 µM (inactive) and the GI50 (SF-295) was > 100 µM (inactive). The GI50 (A498) was > 100 µM (inactive), the GI50 (MCF7) was > 100 µM (inactive) and the GI50 (RXF 393) was > 100 µM (inactive). For the same molecule, the GI50 (HT-29) was > 100 µM (inactive), the GI50 (DU-145) was > 100 µM (inactive) and the GI50 (MDA-N) was > 100 µM (inactive). The GI50 (NCI-H522) was > 100 µM (inactive), the GI50 (SK-OV-3) was > 100 µM (inactive) and the GI50 (NCI-H23) was > 100 µM (inactive). For the same molecule, the GI50 (UO-31) was > 100 µM (inactive), the GI50 (A549) was > 100 µM (inactive) and the GI50 (MDA-MB-231) was > 100 µM (inactive). For the same molecule, the GI50 (COLO 205) was > 100 µM (inactive), the GI50 (HCT-15) was over 100 µM and the GI50 (CAKI-1) was > 100 µM (inactive). For the same molecule, the GI50 (EKVX) was > 100 µM (inactive), the GI50 (SW-620) was > 100 µM (inactive) and the GI50 (KM12) was > 100 µM (inactive). For the same molecule, the GI50 (CCRF-CEM) was > 100 µM (inactive), the GI50 (K562) was > 100 µM (inactive) and the GI50 (HL-60) was > 100 µM (inactive). The GI50 (Malme-3M) was > 100 µM (inactive), the GI50 (LOX IMVI) was > 100 µM (inactive) and the GI50 (UACC-257) was > 100 µM (inactive). For the same molecule, the GI50 (IGROV-1) was > 100 µM (inactive), the GI50 (T47D) was > 100 µM (inactive) and the GI50 (OVCAR-3) was > 100 µM (inactive). For the same molecule, the GI50 (ACHN) was > 100 µM (inactive), the GI50 (UACC-62) was > 100 µM (inactive) and the GI50 (MDA-MB-435) was > 100 µM (inactive). For the same molecule, the GI50 (SR) was > 100 µM (inactive), the GI50 (Hs-578T) was > 100 µM (inactive) and the GI50 (NCI-H226) was > 100 µM (inactive). The GI50 (SF-268) was > 100 µM (inactive) and the GI50 (SNB-75) was > 100 µM (inactive).
